Marks after values point to notes of the source that are not given here.
Tested on: BCA atherosclerosis lesions in LDLr KO mice
Test: LDLr KO mouse brachiocephalic arch atherosclerosis model
Assay type: in vivo
Settings: for Lesion area: 4 weeks, vehicle 50,686; for Macrophage area (brown color): vehicle 18,571; for reduction of lesion area compared to vehicle / reduction of BCA cholesteryl ester (CE) content compared to vehicle: Table 3; for Cholesteryl ester: BCA, vehicle 22.50
Description: The compound of Example 2 is tested in the low density lipoprotein (LDL) receptor knock-out (LDLr KO) mouse model of atherosclerosis. Mice deficient in the ability to encode and synthesize the LDL receptor (LDLr KO) are hypercholesterolemic, especially when maintained on high cholesterol diet, Ishibashi et al. J. Clin. Invest. (1994), 93: 1885-1893. In the large arteries, LDLr KO mice develop spontaneous atherosclerotic lesions that mimic major features of the cellular, lipid, and extracellular matrix composition of human lesions. An important constituent of both human and mouse lesions is the lipid-laden macrophage or “foam cell” in the arterial subendothelium. The esterified cholesterol stored by macrophages is a surrogate for lesion development. Assay of esterified cholesterol directly from mouse arterial tissue (by LC/MS) provides a rapid index of lesion burden. The LDLr KO model used in the present study takes advantage of the rapid development of mature atherosclerotic plaques in the brachiocephalic artery (BCA). Primary endpoints for the study are arterial cholesteryl ester content and lesion dimensions obtained by light microscopic measurement of lesions in serial cross-sections of the artery.
LDLr KO mice (JAX #002207), 7 week old males, were obtained from The Jackson Laboratory (Bar Harbor, Me.). Upon arrival at the testing facility and continuing for a total of 10 weeks, mice were housed individually and fed the atherogenic diet TD.88137 (Teklad) ad libitum. During the first 6 weeks, the mice rested undisturbed in their cages. During the last 4 weeks, the mice received the test compound twice daily by oral gavage.

Compound: CCCc1c(NC(=O)CC(C)(C)C(=O)[O-])cccc1OCCCOc1cc(O)c(-c2ccc(F)cc2)cc1CC.[Na+] [Example 2, Sodium 4-[[3-[3-[2-ethyl-4-(4-fluorophenyl)-5-hydroxy-phenoxy]propoxy]-2-propyl-phenyl]amino]-2,2-dimethyl-4-oxo-butanoate]
- Lesion area (3 mg/kg BID oral gavage): 23700 µm²
- Macrophage area vs. vehicle (3 mg/kg BID, p < 0.02): −65%*
- Lesion area vs. vehicle (3 mg/kg BID, p < 0.049): −53%*
- Cholesteryl ester vs. vehicle (3 mg/kg BID, p = NS): −8%
- Macrophage area (brown color) (3 mg/kg BID): 6520 µm²
- reduction of lesion area compared to vehicle (3 mg/kg b.i.d.): 53%
- Lesion area (10 mg/kg BID oral gavage): 21200 µm²
- Macrophage area vs. vehicle (10 mg/kg BID, p < 0.002): −84%*
- Lesion area vs. vehicle (10 mg/kg BID, p < 0.034): −58%*
- Cholesteryl ester vs. vehicle (10 mg/kg BID, p < 0.09): −18%
- Macrophage area (brown color) (10 mg/kg BID): 2860 µm²
- reduction of BCA cholesteryl ester (CE) content compared to vehicle (10 mg/kg b.i.d., p<0.09): 18%
- reduction of lesion area compared to vehicle (10 mg/kg b.i.d.): 58%
- Lesion area (30 mg/kg BID oral gavage): 17100 µm²
- Lesion area vs. vehicle (30 mg/kg BID, p < 0.017): −66%*
- Cholesteryl ester vs. vehicle (30 mg/kg BID, p < 0.04): −23%*
- Macrophage area vs. vehicle (30 mg/kg BID, p < 0.09): −54%
- Macrophage area (brown color) (30 mg/kg BID): 8520 µm²
- reduction of BCA cholesteryl ester (CE) content compared to vehicle (30 mg/kg b.i.d., p<0.04): 23%
- reduction of lesion area compared to vehicle (30 mg/kg oral b.i.d., p<0.017): 66%
- Cholesteryl ester (3 mg/kg BID): 17.95 nmol
- Cholesteryl ester (10 mg/kg BID): 16.97 nmol
- Cholesteryl ester (30 mg/kg BID): 14.51 nmol

From patent US9187411B2, “Leukotriene B4 antagonist compound” (Eli Lilly and Company, priority 2012, dated 2015)
